Experimental data reported in US20250163077A1, “MEMBRANE-ASSOCIATED TYROSINE- AND THREONINE-SPECIFIC CDC2-INHIBITORY KINASE (PKMYT1) INHIBITORS AND USES THEREOF” (Insilico Medicine IP Limited, priority 2022, published 2025).

Key:
[1] = target: PKMYT1 (Homo sapiens (Human), UniProt Q99640); experiment: PKMYT1 HTRF Assay; type: binding; details: Tracer 178, compound 10 μM to 0.5 nM, read-out: MYT1 HTRF IC50
Method: Compound serial dilution is performed by Echo, and the final concentrations vary from 10 μM to 0.5 nM. This was filled by the addition of 5 μL/well of Enzyme solution to the assay plate containing the compound. The plate was centrifuged at 1000 rpm for 1 minute, and incubate 15 minutes at 25° C. […] Next 5 μL GST-Tb was added into the assay plate, the plate was centrifuged at 1000 rpm for 1 minute, and incubate for 15 minutes at 25° C. The assay plate was read on Envision.

[2] = target: WEE1 (Homo sapiens (Human), UniProt P30291); experiment: WEE1 ADP-Glo Assay; type: biochemical; details: compound 10 μM to 0.5 nM
Chain of WEE1 (P30291 whole entry): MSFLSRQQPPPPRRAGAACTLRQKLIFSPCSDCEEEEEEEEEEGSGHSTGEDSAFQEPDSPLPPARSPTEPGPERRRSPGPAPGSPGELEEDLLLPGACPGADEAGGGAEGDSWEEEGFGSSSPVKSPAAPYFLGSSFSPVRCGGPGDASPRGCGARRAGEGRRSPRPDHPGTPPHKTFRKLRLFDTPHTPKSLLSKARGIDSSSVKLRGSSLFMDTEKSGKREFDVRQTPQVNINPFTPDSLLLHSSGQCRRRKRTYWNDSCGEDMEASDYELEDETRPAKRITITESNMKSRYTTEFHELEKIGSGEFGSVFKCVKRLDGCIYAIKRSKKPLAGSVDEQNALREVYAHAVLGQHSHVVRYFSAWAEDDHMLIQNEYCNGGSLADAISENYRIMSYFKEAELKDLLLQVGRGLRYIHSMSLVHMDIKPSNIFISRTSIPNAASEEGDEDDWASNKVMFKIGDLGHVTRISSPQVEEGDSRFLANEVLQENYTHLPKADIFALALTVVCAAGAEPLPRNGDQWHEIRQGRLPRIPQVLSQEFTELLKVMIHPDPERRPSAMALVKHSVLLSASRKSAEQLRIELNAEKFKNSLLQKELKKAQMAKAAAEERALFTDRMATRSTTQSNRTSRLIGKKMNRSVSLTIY
Method: Compound serial dilution is performed by Echo, and the final concentrations vary from 10 μM to 0.5 nM. This was filled by the addition of 5 μL/well of Enzyme solution to the assay plate containing the compound. The plate was centrifuged at 1000 rpm for 1 minute, and incubate 15 minutes at 25° C. Then 5 μL/well of substrate solution was added to initiate the reaction, and incubate for 60 minutes at 25° C. Next 10 μL kinase detection reagent was added into the assay plate, the plate was centrifuged at 1000 rpm for 1 minute, and incubate for 60 minutes at […]. The assay plate was read on Envision for US LUM as RLU.

Chain of PKMYT1 (Q99640 whole entry): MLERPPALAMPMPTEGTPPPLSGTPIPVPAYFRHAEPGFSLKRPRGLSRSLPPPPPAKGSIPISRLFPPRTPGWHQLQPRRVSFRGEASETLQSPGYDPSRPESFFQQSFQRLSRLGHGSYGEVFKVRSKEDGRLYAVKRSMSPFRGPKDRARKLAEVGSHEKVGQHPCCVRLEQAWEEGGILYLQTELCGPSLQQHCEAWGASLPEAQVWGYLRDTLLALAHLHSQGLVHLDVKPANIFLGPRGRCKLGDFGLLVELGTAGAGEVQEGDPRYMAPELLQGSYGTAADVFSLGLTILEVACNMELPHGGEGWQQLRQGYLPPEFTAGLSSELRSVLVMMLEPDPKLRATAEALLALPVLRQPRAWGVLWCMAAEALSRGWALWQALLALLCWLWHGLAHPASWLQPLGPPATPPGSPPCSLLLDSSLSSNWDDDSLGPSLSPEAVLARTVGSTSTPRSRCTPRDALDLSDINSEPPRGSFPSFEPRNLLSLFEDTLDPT

Compound	IC50 [1]	IC50 [2]
CC#Cc1nc2c(C(=O)N3CCn4nccc4C3)c(N)n(-c3c(C)ccc(O)c3C)c2nc1C [Example 40, (6-amino-5-(3-hydroxy-2,6-dimethylphenyl)-3-methyl-2-(prop-1-yn-1-yl)-5H-pyrrolo[2,3-b]pyrazin-7-yl)(6,7-dihydropyrazolo[1,5-a]pyrazin-5(4H)-yl)methanone]	0.01 to 0.05 µM	–
Cc1nc2n(n1)CCN(C(=O)c1c(N)n(-c3c(C)ccc(O)c3C)c3ncc(Cl)cc13)C2 [Example 10, (2-amino-5-chloro-1-(3-hydroxy-2,6-dimethylphenyl)-1H-pyrrolo[2,3-b]pyridin-3-yl)(2-methyl-5,6-dihydro-[1,2,4]triazolo[1,5-a]pyrazin-7(8H)-yl)methanone]	0.01 to 0.05 µM	> 10 µM
Cc1ccc(O)c(C)c1-n1c(N)c(C(=O)N2CCn3nc(C(C)(C)O)cc3C2)c2nc(C)c(C)nc21 [Example 19]	0.5 to 5 µM	–
Cc1ccc(O)c(C)c1-n1c(N)c(C(=O)N2CCc3ncccc3C2)c2nc(C)c(C)nc21 [Example 7, (6-amino-5-(3-hydroxy-2,6-dimethylphenyl)-2,3-dimethyl-5H-pyrrolo[2,3-b]pyrazin-7-yl)(7,8-dihydro-1,6-naphthyridin-6(5H)-yl)methanone]	< 0.01 µM	> 10 µM
Cc1ccc(O)c(C)c1-n1c(N)c(C(=O)N2CCn3nccc3C2)c2nc(C(F)(F)F)ncc21 [Example 38, (6-amino-5-(3-hydroxy-2,6-dimethylphenyl)-2-(trifluoromethyl)-5H-pyrrolo[3,2-d]pyrimidin-7-yl)(6,7-dihydropyrazolo[1,5-a]pyrazin-5(4H)-yl)methanone]	0.05 to 0.5 µM	> 10 µM
Cc1ccc(O)c(Cl)c1-n1c(N)c(C(=O)N2CCn3nccc3C2)c2nc(C)c(C)nc21 [Example 28, (6-amino-5-(2-chloro-3-hydroxy-6-methylphenyl)-2,3-dimethyl-5H-pyrrolo[2,3-b]pyrazin-7-yl)(6,7-dihydropyrazolo[1,5-a]pyrazin-5(4H)-yl)methanone]	< 0.01 µM	5.43 µM
Cc1cc(F)c(O)c(C)c1-n1c(N)c(C(=O)N2CCn3nccc3C2)c2nc(C)c(C)nc21 [Example 29, (6-amino-5-(4-fluoro-3-hydroxy-2,6-dimethylphenyl)-2,3-dimethyl-5H-pyrrolo[2,3-b]pyrazin-7-yl)(6,7-dihydropyrazolo[1,5-a]pyrazin-5(4H)-yl)methanone]	0.01 to 0.05 µM	> 10 µM
Cc1ccc(O)c(C)c1-n1c(N)c(C(=O)N2CCn3nccc3C2C)c2nc(C)c(C)nc21 (stereo not drawn) [Example 26, (6-amino-5-(3-hydroxy-2,6-dimethylphenyl)-2,3-dimethyl-5H-pyrrolo[2,3-b]pyrazin-7-yl)(4-methyl-6,7-dihydropyrazolo[1,5-a]pyrazin-5(4H)-yl)methanone]	0.5 to 5 µM	> 10 µM
Cc1ccc(O)c(C)c1-n1c(N)c(C(=O)N2CCc3ncsc3C2)c2nc(C)c(C)nc21 [Example 5, (6-amino-5-(3-hydroxy-2,6-dimethylphenyl)-2,3-dimethyl-5H-pyrrolo[2,3-b]pyrazin-7-yl)(6,7-dihydrothiazolo[5,4-c]pyridin-5(4H)-yl)methanone]	0.01 to 0.05 µM	> 10 µM
Cc1ccc(O)c(C)c1-n1c(N)c(C(=O)N2CCn3ncc(CO)c3C2)c2nc(C)c(C)nc21 [Example 16, (6-amino-5-(3-hydroxy-2,6-dimethylphenyl)-2,3-dimethyl-5H-pyrrolo[2,3-b]pyrazin-7-yl)(3-(hydroxymethyl)-6,7-dihydropyrazolo[1,5-a]pyrazin-5(4H)-yl)methanone]	< 0.01 µM	> 10 µM
C=Cc1cnc2c(n1)c(C(=O)N1CCn3nccc3C1)c(N)n2-c1c(C)ccc(O)c1C [Example 33, (6-amino-5-(3-hydroxy-2,6-dimethylphenyl)-2-vinyl-5H-pyrrolo[2,3-b]pyrazin-7-yl)(6,7-dihydropyrazolo[1,5-a]pyrazin-5(4H)-yl)methanone]	0.01 to 0.05 µM	> 10 µM
Cc1cc2n(n1)CCN(C(=O)c1c(N)n(-c3c(C)ccc(O)c3C)c3ncc(Cl)cc13)C2 [Example 11, (2-amino-5-chloro-1-(3-hydroxy-2,6-dimethylphenyl)-1H-pyrrolo[2,3-b]pyridin-3-yl)(2-methyl-6,7-dihydropyrazolo[1,5-a]pyrazin-5(4H)-yl)methanone]	0.01 to 0.05 µM	> 10 µM
Cc1ccc(O)c(C)c1-n1c(N)c(C(=O)N2CCn3c(nnc3C(F)(F)F)C2)c2cc(Cl)cnc21 [Example 27, (2-amino-5-chloro-1-(3-hydroxy-2,6-dimethylphenyl)-1H-pyrrolo[2,3-b]pyridin-3-yl)(3-(trifluoromethyl)-5,6-dihydro-[1,2,4]triazolo[4,3-a]pyrazin-7(8H)-yl)methanone]	0.05 to 0.5 µM	> 10 µM
Cc1ccc(O)c(C)c1-n1c(N)c(C(=O)N2CCc3ncsc3C2)c2cc(Cl)cnc21 [Example 9, (2-amino-5-chloro-1-(3-hydroxy-2,6-dimethylphenyl)-1H-pyrrolo[2,3-b]pyridin-3-yl)(6,7-dihydrothiazolo[5,4-c]pyridin-5(4H)-yl)methanone]	0.01 to 0.05 µM	> 10 µM
Cc1ccc(O)c(C)c1-n1c(N)c(C(=O)N2CCn3nc(C(F)(F)F)nc3C2)c2cc(Cl)cnc21 [Example 12, (2-amino-5-chloro-1-(3-hydroxy-2,6-dimethylphenyl)-1H-pyrrolo[2,3-b]pyridin-3-yl)(2-(trifluoromethyl)-5,6-dihydro-[1,2,4]triazolo[1,5-a]pyrazin-7(8H)-yl)methanone]	0.01 to 0.05 µM	> 10 µM
Cc1ccc(O)c(C)c1-n1c(N)c(C(=O)N2CCc3nn(C)cc3C2)c2nc(C)c(C)nc21 [Example 6, (6-amino-5-(3-hydroxy-2,6-dimethylphenyl)-2,3-dimethyl-5H-pyrrolo[2,3-b]pyrazin-7-yl)(2-methyl-2,4,6,7-tetrahydro-5H-pyrazolo[4,3-c]pyridin-5-yl)methanone]	0.01 to 0.05 µM	> 10 µM
